Laboratory results taken from patent EP0252983B1, “SALTS OF N-(VINYLOXIETHYL)DITHIOCARBAMIC ACID, METHOD OF OBTAINING THEREOF AND […] ON THEM” (priority 1985, dated 1987).

Legend:
[1] = test system: Cladosporium cladosporioides; test: Mycelial growth inhibition on agar (contact activity); type: cell-based; conditions: Cladosporium cladosporioides, 120 h; Präparatkonzentration 0,006 %; Würzeagar; read-out: Myzelhemmung in %
Pythium ultimum = test: Soil fungicide test (fungal discs in treated soil); type: cell-based; set-up: key: Das Vorhandensein (+); das Fehlen (-) des wachsenden Myzels um die Scheibe herum; conditions: 160 mg/kg Boden
Method: (§1) Eine 50 g schwere Bodenprobe bringt man in ein Glasgefäß ein, sterilisiert innerhalb von 2 Stunden unter einem Druck von 2 atm, gibt dann dem Boden das Präparat als wäßrige Lösung ausgehend von 160 mg/kg zu, wonach in den Boden Scheiben mit Kulturen folgender Pilze Fusarium oxysporum, Verticillium dahliae, Rhizoctonia solani, Pythium ultimum untergebracht werden.
(§2) Nach 24 und 48 Stunden werden die Scheiben in fließendem Wasser, dann in sterilem Wasser gewaschen, auf sterilem Filterpapier getrocknet und auf eine reine Agarplatte gelegt. Das Vorhandensein (+) oder das Fehlen (-) des wachsenden Myzels um die Scheibe herum wies auf die Wirksamkeit des Präparats. Als Vergleichsmuster diente dabei Karbathion. Die Prüfergebnisse sind in der Tabelle 5 dargestellt.

Rhizoctonia solani = test: Soil fungicide test (fungal discs in treated soil); type: cell-based; set-up: key: Das Vorhandensein (+); das Fehlen (-) des wachsenden Myzels um die Scheibe herum; conditions: 160 mg/kg Boden
Method: as §1, §2

Fusarium oxysporum = test: Soil fungicide test (fungal discs in treated soil); type: cell-based; set-up: key: Das Vorhandensein (+); das Fehlen (-) des wachsenden Myzels um die Scheibe herum; conditions: 160 mg/kg Boden
Method: as §1, §2

Verticillium dahliae = test: Soil fungicide test (fungal discs in treated soil); type: cell-based; set-up: key: Das Vorhandensein (+); das Fehlen (-) des wachsenden Myzels um die Scheibe herum; conditions: 160 mg/kg Boden
Method: as §1, §2

Acremonium cowum = test: Mycelial growth inhibition on agar (contact activity); type: cell-based; conditions: 120 h, Würzeagar, read-out: Myzelhemmung in %
Geotrichum candidum Link = test: as above; type: cell-based; conditions: Würzeagar
Cladosporium resinae = test: as above; type: cell-based; conditions: Amorphotheca resinae, 120 h, Würzeagar, read-out: Myzelhemmung in %
Oidium Sp. = test: as above; type: cell-based; conditions: Würzeagar
[2] = test system: Cladosporium cladosporioides; test: as above; type: cell-based; conditions: Cladosporium cladosporioides, 120 h, Würzeagar, read-out: Myzelhemmung in %
Penicillium chrysogenum = test: as above; type: cell-based; conditions: Würzeagar
Penicillium charlesii = test: as above; type: cell-based; conditions: Penicillium charlesii, 120 h, Würzeagar, read-out: Myzelhemmung in %
Acremonium charticola = test: as above; type: cell-based; conditions: Acremonium charticola, 120 h, Würzeagar, read-out: Myzelhemmung in %
Walrotiela subiculesa = test: as above; type: cell-based; conditions: 120 h, Würzeagar, read-out: Myzelhemmung in %
Fusarium moniliforme = test: as above; type: cell-based; conditions: Fusarium verticillioides, 120 h, Kartoffel-Glukose-Nährmedium, read-out: Myzelhemmung in %
Helminthosporium sativum = test: Barley seed dressing against root rot (helminthosporiosis); type: in vivo; conditions: Aufwandmenge von 1 g/kg
Method: Die Aktivität der Verbindung gegen Wurzelfäule (Helminthosporiose) der Gerste wurde unter Laborbedingungen untersucht. Gerstensamen, infiziert mit einer 7 Tage alten Pizkultur Helminthosporium sativum, wurden durch Präparaten ausgehend von 1 g Präparat (bezogen auf den Wirkstoff) je 1 kg Samen nach einem halbtrockenen Verfahren gebeizt, in Aufzuchträume mit befeuchtetem Sand gesät und innerhalb von 11 bis 14 Tagen bei einer zwischen 20 und 22 °C gehalten. Am 14 Tag schätzte man die Keimfähigkeit von Gerstensamen ein und ermittelte die Quote von durch Helminthosporiose befallenen Pflanzen. Die Prüfergebnisse sind in der Tabelle 4 dargestellt.

[3] = Solubility in water (descriptive); type: physicochemical

Q: For `C=COCCNC(=S)S` [Kalium-N-(vinyloxyäthyl)dithiocarbamat], which inhibition of growth at 0.006 % [1] is on record?
A: 100%

Q: And the “wachsendes Myzel um die Scheibe” value (Pythium ultimum; Haltedauer 24 Stunden)?
A: -

Q: And the “wachsendes Myzel um die Scheibe” value (Pythium ultimum; Haltedauer 48 Stunden)?
A: -

Q: And the “wachsendes Myzel um die Scheibe” value (Rhizoctonia solani; Haltedauer 24 Stunden)?
A: -

Q: What about the “wachsendes Myzel um die Scheibe” value (Rhizoctonia solani; Haltedauer 48 Stunden) of the same compound?
A: -

Q: What about the “wachsendes Myzel um die Scheibe” value (Fusarium oxysporum; Haltedauer 24 Stunden) of the same compound?
A: -

Q: And the “wachsendes Myzel um die Scheibe” value (Fusarium oxysporum; Haltedauer 48 Stunden)?
A: -

Q: And the “wachsendes Myzel um die Scheibe” value (Verticillium dahliae; Haltedauer 24 Stunden)?
A: -

Q: What about the “wachsendes Myzel um die Scheibe” value (Verticillium dahliae; Haltedauer 48 Stunden) of the same compound?
A: -

Q: And the inhibition of growth at 0.0015 % (Acremonium cowum; Präparatkonzentration 0,0015 %)?
A: 100%

Q: And the inhibition of growth at 0.012 % (Acremonium cowum; Präparatkonzentration 0,012 %)?
A: 100%

Q: What about the inhibition of growth at 0.012 % (Geotrichum candidum Link; Geotrichum candidum, 120 h, Präparatkonzentration 0,012 %, read-out: Myzelhemmung in %) of the same compound?
A: 100%

Q: And the Myzelhemmung in % (Geotrichum candidum Link; Präparatkonzentration 0,0015 %)?
A: 30%

Q: What about the Myzelhemmung in % (Geotrichum candidum Link; Präparatkonzentration 0,003 %) of the same compound?
A: 100%

Q: And the Myzelhemmung in % (Geotrichum candidum Link; Präparatkonzentration 0,006 %)?
A: 100%

Q: And the inhibition of growth at 0.0015 % (Cladosporium resinae; Präparatkonzentration 0,0015 %)?
A: 100%

Q: And the inhibition of growth at 0.003 % (Cladosporium resinae; Präparatkonzentration 0,003 %)?
A: 100%

Q: What about the inhibition of growth at 0.006 % (Cladosporium resinae; Präparatkonzentration 0,006 %) of the same compound?
A: 100%

Q: What about the inhibition of growth at 0.012 % (Cladosporium resinae; Präparatkonzentration 0,012 %) of the same compound?
A: 100%

Q: What about the inhibition of growth at 0.003 % (Oidium Sp.; 120 h, Präparatkonzentration 0,003 %, read-out: Myzelhemmung in %) of the same compound?
A: 100%

Q: What about the inhibition of growth at 0.006 % (Oidium Sp.; 120 h, Präparatkonzentration 0,006 %, read-out: Myzelhemmung in %) of the same compound?
A: 100%

Q: And the inhibition of growth at 0.012 % (Oidium Sp.; 120 h, Präparatkonzentration 0,012 %, read-out: Myzelhemmung in %)?
A: 100%

Q: What about the Myzelhemmung in % (Oidium Sp.; Präparatkonzentration 0,0015 %) of the same compound?
A: 96%

Q: And the inhibition of growth at 0.0015 % ([2]; Präparatkonzentration 0,0015 %)?
A: 100%

Q: What about the inhibition of growth at 0.003 % ([2]; Präparatkonzentration 0,003 %) of the same compound?
A: 100%

Q: And the inhibition of growth at 0.012 % ([2]; Präparatkonzentration 0,012 %)?
A: 100%

Q: And the inhibition of growth at 0.003 % (Penicillium chrysogenum; Penicillium chrysogenum, 120 h, Präparatkonzentration 0,003 %, read-out: Myzelhemmung in %)?
A: 26%

Q: And the inhibition of growth at 0.006 % (Penicillium chrysogenum; Penicillium chrysogenum, 120 h, Präparatkonzentration 0,006 %, read-out: Myzelhemmung in %)?
A: 93%

Q: And the inhibition of growth at 0.012 % (Penicillium chrysogenum; Penicillium chrysogenum, 120 h, Präparatkonzentration 0,012 %, read-out: Myzelhemmung in %)?
A: 100%

Q: What about the Myzelhemmung in % (Penicillium chrysogenum; Präparatkonzentration 0,0015 %) of the same compound?
A: 15%

Q: And the inhibition of growth at 0.0015 % (Penicillium charlesii; Präparatkonzentration 0,0015 %)?
A: 30%

Q: And the inhibition of growth at 0.003 % (Penicillium charlesii; Präparatkonzentration 0,003 %)?
A: 55%

Q: What about the inhibition of growth at 0.006 % (Penicillium charlesii; Präparatkonzentration 0,006 %) of the same compound?
A: 90%

Q: What about the inhibition of growth at 0.012 % (Penicillium charlesii; Präparatkonzentration 0,012 %) of the same compound?
A: 100%

Q: And the inhibition of growth at 0.003 % (Acremonium charticola; Präparatkonzentration 0,003 %)?
A: 100%

Q: What about the inhibition of growth at 0.006 % (Acremonium charticola; Präparatkonzentration 0,006 %) of the same compound?
A: 100%

Q: What about the inhibition of growth at 0.012 % (Acremonium charticola; Präparatkonzentration 0,012 %) of the same compound?
A: 100%

Q: What about the inhibition of growth at 0.0015 % (Walrotiela subiculesa; Präparatkonzentration 0,0015 %) of the same compound?
A: 100%

Q: And the inhibition of growth at 0.003 % (Walrotiela subiculesa; Präparatkonzentration 0,003 %)?
A: 100%

Q: And the inhibition of growth at 0.006 % (Walrotiela subiculesa; Präparatkonzentration 0,006 %)?
A: 100%

Q: What about the inhibition of growth at 0.012 % (Walrotiela subiculesa; Präparatkonzentration 0,012 %) of the same compound?
A: 100%

Q: And the inhibition of growth at 0.01 % (Fusarium moniliforme; Wirkstoffkonzentration 0,01 %)?
A: 100%

Q: What about the inhibition of growth at 0.003 % (Fusarium moniliforme; Wirkstoffkonzentration 0,003 %) of the same compound?
A: 100%

Q: What about the “Wirksamkeit als Beizmittel gegenüber Vergleichsmuster (TMTD und Polykarbazin)” value (Helminthosporium sativum) of the same compound?
A: zweimal wirksamer

Q: And the “Löslichkeit in Wasser” value [3]?
A: gut
